Values of other authors, collected in patent US20140141090A1, “Pharmaceutical Composition Comprising Opioid Agonist And Sequestered Antagonist” (priority 2011, published 2014).
Where a name gives a salt, the structure may show the parent alone. Read-outs that look alike come from different tables or passages of the source.

Columns and labels:
[1] = after oral administration
[2] = not given; remark: listed apart in the source
[3] = not given; remark: listed apart in the source
[4] = in comparison to a 15 mg dose of hydrocodone

For `COc1ccc2c3c1O[C@H]1[C@@H](O)C=C[C@H]4[C@@H](C2)N(C)CC[C@@]341` [codeine], which Equianalgesic dose [4] is on record?
Its Equianalgesic dose is 90.0 mg.

For `C[C@H]1[C@H]2Cc3ccc(O)cc3[C@]1(C)CCN2CC1CC1` [cyclazocine], which Duration of action [1] is on record?
Its Duration of action is ~24 h.

For `O=C1CC[C@@]2(O)[C@H]3Cc4ccc(O)c5c4[C@@]2(CCN3CC2CC2)[C@H]1O5` [hydrochloride salt of naltrexone, naltrexone hydrochloride], which Solubility in water [2] is on record?
Its Solubility in water is “up to 100 mg/cc”.

Which Equianalgesic dose [4] does the source give for `COc1ccc2c3c1O[C@H]1C(=O)CC[C@H]4[C@@H](C2)N(C)CC[C@]314` [hydrocodone] here?
The Equianalgesic dose was 15.0 mg.

With `CN1CC[C@]23CCCC[C@H]2[C@H]1Cc1ccc(O)cc13` [levorphanol] as the compound, how does the Equianalgesic dose [4] read?
The Equianalgesic dose was 1.8 mg.

For `CCOC(=O)C1(c2ccccc2)CCN(C)CC1` [meperidine], which Equianalgesic dose (in vivo) is on record?
Its Equianalgesic dose is 135.0 mg.

Which Equianalgesic dose [4] does the source give for `CCC(=O)C(CC(C)N(C)C)(c1ccccc1)c1ccccc1` (stereo not drawn) [methadone] here?
The Equianalgesic dose was 9.0 mg.

For `CN1CC[C@]23c4c5ccc(O)c4O[C@H]2[C@@H](O)C=C[C@H]3[C@H]1C5` [morphine], which Equianalgesic dose (in vivo) is on record?
The Equianalgesic dose was 27.0 mg.

For `O=C1CC[C@@]2(O)[C@H]3Cc4ccc(O)c5c4[C@@]2(CCN3CC2CC2)[C@H]1O5` [naltrexone], which Duration of action [1] is on record?
The Duration of action was ~24 h.

And the Oral bioavailability [3]?
The Oral bioavailability was 5-40%.

What about the “Time of absorption following oral administration” value [3] of the same compound?
Its value is ≤ 1 h.

With `COc1ccc2c3c1OC1C(=O)CC[C@@]4(O)[C@@H](C2)N(C)CC[C@]314` (stereo partly drawn) [oxycodone, 4,5-epoxy-14-hydroxy-3-methoxy-17-methylmorphinan-6-one] as the compound, how does the Equianalgesic dose [4] read?
The Equianalgesic dose was 13.5 mg.
